Several values for one entry are separate records, joined by “and”; a condition that tells them apart may be missing. Identical values can stand only once.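 All cell lines were grown in 96-well plates and treated with compound for 48 hours. GI50: concentration for 50% inhibition of growth. Definition used: TGI = concentration required for complete inhibition of growth.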 Bounds are passed on as bounds.

Among the test systems are UO-31 renal; NCI-H23 lung; SR leukemia; RPMI-8226 leukemia; NCI-H522 lung; SW-620 colon; SF-539 CNS; A549 NSCLC; HOP-62 NSCLC; MALME-3M melanoma.
What all share (experiment): DTP human tumour cell line panel, 48 h

A word on the GI50: it is the concentration that inhibits growth by half. Usually TGI stands for the concentration at which net growth stops. A higher TGI goes with lower sensitivity of the cells. For `O=C(Nc1nc(-c2c[nH]c3ccccc23)cs1)c1n[nH]c(=O)c2ccccc12`, the GI50 with UO-31 renal was 8.46 µM; in the test with NCI-H23 lung it was 24.2 µM; with SR leukemia, 1.61 µM; in the test with RPMI-8226 leukemia, 0.957 µM; with NCI-H522 lung it was 3.26 µM; in the test with SW-620 colon, 1.91 µM. The GI50 in the test with SF-539 CNS is 1.68 µM; with A549 NSCLC it was 1.57 µM; in the test with HOP-62 NSCLC, 3.72 µM; in the test on MALME-3M melanoma it was 18.7 µM. Further, the total growth inhibition concentration (TGI) is > 67.7 µM in the test on UO-31 renal; > 100 µM in the test with NCI-H23 lung; 58.2 µM in the test on RPMI-8226 leukemia; > 58.2 µM with NCI-H522 lung; > 100 µM in the test with SW-620 colon; > 57.6 µM with SF-539 CNS. The total growth inhibition concentration (TGI) with A549 NSCLC is 83.6 µM; in the test with HOP-62 NSCLC it was 26.6 µM; with MALME-3M melanoma, 80 µM.
As to `CCn1cc(-c2ccnc3[nH]c(-c4cccc(CN(C)C)c4)cc23)c(-c2ccc(NC(=O)N(C)C)cc2)n1`, the GI50 in the test with UO-31 renal was 2.22 µM and 1.99 µM; with NCI-H23 lung, 2.1 µM and 2.45 µM; in the test with SR leukemia, 0.122 µM and 0.031 µM; with RPMI-8226 leukemia, 1.69 µM and 1.32 µM; in the test with SW-620 colon, 0.566 µM and 0.533 µM; in the test with SF-539 CNS it was 0.418 µM and 1.38 µM. Further, the GI50 with A549 NSCLC was 0.238 µM and 0.747 µM; with HOP-62 NSCLC, 0.385 µM and 1.28 µM; in the test with MALME-3M melanoma, 12 µM and > 10 µM. Also, the concentration for total growth inhibition (TGI) in the test with UO-31 renal was 9.98 µM and > 10 µM; with NCI-H23 lung it was 17.2 µM and > 10 µM; with SR leukemia it was 6.58 µM and 3.28 µM; in the test on RPMI-8226 leukemia, 15.6 µM and > 10 µM; in the test on NCI-H522 lung it was 20 µM and > 10 µM; with SW-620 colon, 13.7 µM and > 10 µM. For the same molecule, the TGI is 13.3 µM and > 10 µM in the test on SF-539 CNS; 16.1 µM and > 10 µM with A549 NSCLC; 14.4 µM and > 10 µM with HOP-62 NSCLC; 29.3 µM and > 10 µM in the test with MALME-3M melanoma.
As to `CC(C)=CCC1=C(O)c2ccccc2C(=O)C1=O`, the GI50 is > 100 µM in the test with UO-31 renal; > 100 µM and 23.5 µM and 33.6 µM in the test on NCI-H23 lung; > 100 µM and 19.7 µM and 20.6 µM in the test with NCI-H522 lung; > 100 µM and 34.6 µM and 22.9 µM in the test with SW-620 colon; > 100 µM and 17.3 µM and 16.6 µM with A549 NSCLC; > 100 µM and 35.1 µM and 20.4 µM in the test with MALME-3M melanoma. Also, the TGI in the test on UO-31 renal is > 100 µM; in the test on NCI-H23 lung it was > 100 µM and 69.7 µM; in the test with SR leukemia, > 100 µM; with RPMI-8226 leukemia, > 100 µM; in the test with NCI-H522 lung it was > 100 µM; with SW-620 colon, > 100 µM. Further, the TGI was > 100 µM in the test with SF-539 CNS; > 100 µM with A549 NSCLC; > 100 µM in the test on HOP-62 NSCLC; > 100 µM and 96.2 µM with MALME-3M melanoma.
For the molecule `COc1ccc(-c2cc(=O)oc3c4c(ccc23)OCN(Cc2ccc(F)cc2)C4)cc1`, the GI50 is 7.26 µM in the test with UO-31 renal; 20.5 µM in the test on NCI-H23 lung; 13 µM with SR leukemia; 15.4 µM in the test with RPMI-8226 leukemia; 16.6 µM with NCI-H522 lung; 16.3 µM with SW-620 colon. Also, the GI50 in the test on SF-539 CNS is 15.8 µM; in the test on A549 NSCLC, 25.6 µM; in the test on HOP-62 NSCLC, 14.4 µM; in the test with MALME-3M melanoma, 15.4 µM. The TGI was 37.9 µM in the test with UO-31 renal; 49.4 µM in the test with NCI-H23 lung; 39.9 µM with SR leukemia; 37.1 µM in the test on RPMI-8226 leukemia; 33.6 µM in the test on NCI-H522 lung; 31.8 µM in the test with SW-620 colon. The TGI in the test with SF-539 CNS was 32.5 µM; with A549 NSCLC, > 100 µM; in the test on HOP-62 NSCLC, 30.8 µM; with MALME-3M melanoma, 32.7 µM.
With `COc1cc2c3c(n(C)c(=O)c2cc1OC)-c1cc2c(cc1C3=O)OCO2`, the TGI in the test with UO-31 renal was > 100 µM; in the test on NCI-H23 lung, 37 µM; in the test on SR leukemia, 11.8 µM; in the test on RPMI-8226 leukemia, > 100 µM; in the test on NCI-H522 lung, 34.8 µM; in the test with SW-620 colon, > 100 µM. The TGI was 23.9 µM with SF-539 CNS, > 100 µM in the test on A549 NSCLC, > 55 µM in the test on HOP-62 NSCLC and > 100 µM with MALME-3M melanoma.
Turning to `COC(=O)C1=CN(CC2=CC(=O)C(C)=CC2=O)C=C(C(=O)OC)C1c1ccccc1OC`, the GI50 with UO-31 renal is 16.4 µM; with NCI-H23 lung it was 19.5 µM; in the test on SR leukemia it was 4.01 µM; in the test with RPMI-8226 leukemia it was 10.3 µM; with NCI-H522 lung, 23.7 µM; with SW-620 colon, 18.5 µM. The GI50 was 21.2 µM in the test on SF-539 CNS, 29.3 µM in the test on A549 NSCLC, 23.5 µM in the test on HOP-62 NSCLC and 14 µM in the test with MALME-3M melanoma. The TGI is 31.2 µM in the test on UO-31 renal; 45.6 µM in the test on NCI-H23 lung; 19.6 µM in the test on SR leukemia; 40.7 µM in the test with RPMI-8226 leukemia; > 64.6 µM in the test on NCI-H522 lung; > 64.9 µM with SW-620 colon. Also, the TGI in the test with SF-539 CNS was 60.3 µM; in the test with A549 NSCLC it was > 59.4 µM; in the test with HOP-62 NSCLC it was > 51 µM; in the test on MALME-3M melanoma it was 33.3 µM.

The values above are taken from PubChem BioAssay (NCI).
